Laboratory results: patent US7803619B2, “Embryoid body-based screen” (Geneprotech, Inc., priority 2004, dated 2010)

Columns and labels:
[1] = tested on: EB from ES cell line (ES-6) containing necdin-puromycin-IRES-β-galactosidase cassette; experiment: Embryoid body neurogenesis screen: necdin promoter-driven β-galactosidase expression; assay type: cell-based, mouse; conditions: 48 h exposure
Experimental: A brief description of the procedure follows. A tagged ES cell line containing a stably integrated necdin-puromycin-IRES-β-galactosidase cassette was allowed to form EBs. One thousand cells in 200 μl media without LIF were plated in a 96-well PCR plate. On the third day, the EBs were transferred to a 96-well tissue culture plate coated with laminin. The medium was changed on the fourth day and appropriate small molecule compounds were added with each compound being assessed in triplicate. Six wells received no treatment and six wells received treatment with vehicle control (DMSO or ethanol diluted in similar manner as small molecule compounds). The cells were incubated with compounds for 48 hours, compounds removed by washing with PBS and cells allowed to grow and differentiate in media for 4 days. Cells were lysed on the fifth day and the lysates were analyzed for β-galactosidase expression. […] Two positive controls, 50 ng/ml nerve growth factor (NGF) and 1 uM retinoic acid (RA) (Sigma Chemical, St. Louis) and small molecule compounds (piperine, curcumin, rosmarinic acid, U0126, LY294002) were used for screening. Fold increase was calculated based on the respective vehicle control […] activity. […] This is not surprising since NGF is a stronger neurogenic growth factor than is RA. […]
An ES cell line (ES-6; Preliminary Studies Section C.2.) containing a stably integrated necdin-puromycin-IRES-β-galactosidase cassette was allowed to form EB. […] The medium was changed on the fourth day and appropriate small molecule compounds were added with each compound being assessed in triplicate. […] Cells were lysed on the fifth day and the lysates were analyzed for β-galactosidase expression. […] Fold increase was calculated based on the respective vehicle control β-galactosidase activity. […]
After addition of puromycin to the media, neuronal cells are the anticipated survivors and other cell types are expected to be eliminated. Since activity of the necdin promoter confers β-galactosidase expression, a quantitative measurement of β-galactosidase activity is performed. […]

[2] = tested on: endothelial cell culture system; conditions: cited from earlier work
[3] = tested on: chorioallantoic membrane; conditions: cited from earlier work
[4] = tested on: EB; conditions: cited from earlier work
[5] = tested on: murine ES cells; conditions: cited from earlier work
[6] = tested on: myeloid leukemia HL60 cells; conditions: cited from earlier work

For CC1=C(/C=C/C(C)=C/C=C/C(C)=C/C(=O)O)C(C)(C)CCC1 [RA, retinoic acid], the “Fold increase in neurogenesis (β-galactosidase activity relative to respective vehicle control)” value ([1]; positive control, 1 uM) was 11 fold.

In the case of O=C(/C=C/C=C/c1ccc2c(c1)OCO2)N1CCCCC1 [piperine], the “Fold increase in neurogenesis (β-galactosidase activity relative to respective vehicle control)” value ([1]; small molecule compound at 10 μM, lysed on fifth day after removal) is reported as 3.3 fold.

For O=C1CCC(N2C(=O)c3ccccc3C2=O)C(=O)N1 (centres unmarked) [thalidomide], the Anti-angiogenic effect [2] is listed as “no anti-angiogenic effect”, the Anti-angiogenic effect [3] is listed as “no anti-angiogenic effect” and the Anti-angiogenic effect [4] is listed as “had anti-angiogenic effect”.

In the case of O=C1O[C@H]([C@@H](O)CO)C(O)=C1O [vitamin C, ascorbic acid], the “Number of cardiac myocytes showing rhythmic contractile activity, positive for sarcomeric myosin and alpha-actinin” value [5] is listed as “markedly increased”.

For boswellic acid acetate, the “Differentiation into monocyte-like cells” value [6] is listed as “induces differentiation”.

In the case of nerve growth factor [NGF], the “Fold increase in neurogenesis (β-galactosidase activity relative to respective vehicle control)” value ([1]; positive control, 50 ng/ml) is reported as 30 fold.
